{"source": "patent US20110217300A1", "about": "“Quinazolinone Compounds and Methods of Use Thereof” (priority 2007, published 2011)", "key": {"[1]": {"test_system": "DU145 xenograft", "assay": "Xenograft model", "assay_type": "in vivo, mice", "settings": "DU145, Prostate; procedures and dosages of Examples 106-108"}, "[2]": {"test_system": "PACA2 tumor xenografts", "assay": "PACA2 tumor xenograft efficacy study (Example 106)", "assay_type": "in vivo, mice", "experimental": "Six-week old female athymic nude mice (NCR nu/nu; Charles River Laboratory, Wilmington, Mass.) were acclimated to the animal housing facility for at least 1 week before the study. Efficacy studies were performed in athymic mice bearing PACA2 tumor xenografts to determine the effect of compound on tumor growth. Tumor cells (1×10^7 PACA2 cells/animal) were inoculated subcutaneously on day 0. Tumor dimensions were measured by a digital microcaliper, and tumor volumes were calculated as length×width^2/2. […] Results are expressed as mean tumor volume±SE. To assess differences in tumor size between groups, a Mann-Whitney non-parametric t test was performed and significance was assessed for p values <0.05. Tumor size was evaluated periodically during treatment at the indicated days post-inoculation. Results are represented as the mean of tumor volume in mm^3±SE of several tumors (n=10) in function of the treatment period. […] (See FIG. 1A)."}, "[3]": {"test_system": "MDA-MB-231 tumor xenografts", "assay": "MDA-MB-231 tumor xenograft efficacy study", "assay_type": "in vivo, mice", "experimental": "Six weeks old female athymic nude mice (NCR nu/nu) received from Charles River Laboratory, acclimated to the animal housing facility for one week before initiation of the study. Mice were housed in sterile cages of 4 each with autoclaved bedding, provided with autoclaved food and water ad libitum. Efficacy studies were performed in athymic mice bearing MDA-MB-231 tumor xenografts to determine the effect of compound on tumor growth. Tumor cells (5×10^6 MDA-MB-231 cells/animal) were inoculated subcutaneously on day 0. Tumor dimensions were measured three times weekly by a digital microcaliper, and tumor volumes were calculated as length×width^2/2. When tumors reached a volume of ˜100 mm^3, mice were randomized into groups and treated 3× weekly (Monday-Wednesday-Friday, followed by a 2-day dosing holiday) intraperitoneally. With either vehicle control or 3 mg/kg, 6 mg/kg and 12 mg/kg compound formulated in DMA/PEG400/water (4:8:88). Results are expressed as mean tumor volume±SE. To assess differences in tumor size between groups, student's t test was performed and significance was assessed for p values <0.05. Tumor size was evaluated periodically during treatment at the indicated days post-inoculation. Results are represented as the mean of tumor volume in mm^3±SE of several tumors (n=8) in function of the treatment period.\nThe in vivo activity of N-(3-amino-propyl)-3-chloro-N—[(R)-1-(7-chloro-4-oxo-3-phenylamino-3,4-dihydro-quinazolin-2-yl)-but-3-ynyl]-2-fluoro-benzamide was tested using xenograft models using cell lines as reported in Table 4. The experiments were performed using the general procedures and dosages of Examples 106-108."}, "[4]": {"test_system": "A375 xenograft", "assay": "Xenograft model", "assay_type": "in vivo, mice", "settings": "A375, Skin; procedures and dosages of Examples 106-108"}, "[5]": {"test_system": "NCI-H460", "assay": "MTS cell viability assay", "assay_type": "cell-based, human", "how_it_was_run": "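Growth inhibition is assessed by MTS conversion in human cancer cells cultured in DMEM with 10% FBS. Compound exposure lasts 72 h at 0.33% final DMSO, and GI50 is derived from […] readings.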"}, "[6]": {"test_system": "HT29 xenograft", "assay": "Xenograft model", "assay_type": "in vivo, mice", "settings": "HT29, Colon; procedures and dosages of Examples 106-108"}, "[7]": {"test_system": "SK-OV-3 xenograft", "assay": "Xenograft model", "assay_type": "in vivo, mice", "settings": "SK-OV-3, Ovary; procedures and dosages of Examples 106-108"}}, "note": "Where two headings read alike, the source gives them in different places."}
{"smiles": "C#CC[C@H](c1nc2cc(Cl)ccc2c(=O)n1Nc1ccccc1)N(CCCN)C(=O)c1cccc(Cl)c1F", "note": "[Compound 1, N-(3-Amino-propyl)-3-chloro-N—[(R)-1-(7-chloro-4-oxo-3-phenylamino-3,4-dihydro-quinazolin-2-yl)-but-3-ynyl]-2-fluoro-benzamide]", "values": [{"measurement": "Xenograft Outcome (approximate percent growth inhibition)", "setting": "[1]", "value": "~75", "unit": "%"}, {"measurement": "tumor growth compared to the vehicle control group", "setting": "[2]; 6.25 or 12.5 mg/kg intraperitoneally 3x weekly for 4 weeks, tumors ~100 mm^3 at start, FIG. 1A", "value": "Significant reductions in tumor growth"}, {"measurement": "tolerability of doses", "setting": "[2]; 6.25 or 12.5 mg/kg intraperitoneally 3x weekly, PACA2 xenograft mice", "value": "well-tolerated"}, {"measurement": "tolerability of doses", "setting": "[3]; 3 mg/kg, 6 mg/kg or 12 mg/kg intraperitoneally 3x weekly, MDA-MB-231 xenograft mice", "value": "well-tolerated"}, {"measurement": "tumor growth compared to the vehicle control group", "setting": "[3]; 3 mg/kg, 6 mg/kg or 12 mg/kg intraperitoneally 3x weekly, tumors ~100 mm^3 at start, FIG. 2", "value": "Significant reductions in tumor growth"}, {"measurement": "Xenograft Outcome (approximate percent growth inhibition)", "setting": "[3]; MDA-MB-231, Breast, procedures and dosages of Examples 106-108", "value": "~80", "unit": "%"}, {"measurement": "Xenograft Outcome (approximate percent growth inhibition)", "setting": "[4]", "value": "small"}, {"measurement": "GI50", "setting": "[5]; Homo sapiens, NCI-H460, 72 h, read-out: MTS NCI H460 GI50, NCI-H460 non small cell lung, 72 hours", "value": 360, "unit": "nM"}, {"measurement": "GI50", "setting": "[5]; Homo sapiens, NCI-H460, read-out: Average GI50, NCI-H460, Large cell lung carcinoma (Table 3)", "value": 1100, "unit": "nM"}, {"measurement": "GI50", "setting": "[5]; read-out: Average GI50, NCI-H460, Large cell lung carcinoma (Table 3), listed as I", "value": 1050, "unit": "nM"}, {"measurement": "Xenograft Outcome (approximate percent growth inhibition)", "setting": "[6]", "value": "~30", "unit": "%"}, {"measurement": "Xenograft Outcome (approximate percent growth inhibition)", "setting": "[7]", "value": "~50", "unit": "%"}]}
